The test system of one assay is obese ob/ob mouse. Nature of the assay: Effect on food intake and weight development in the obese mouse. The class given is in vivo. The conditions noted are these: female ob/ob C57B1/6J mice; for Food intake % variation (D1), Treated: D1, compared with the basal food intake; for Body weight % variation (D4/D0): between first and last day of treatment. The procedure:
The compounds of the invention were administered in vivo to the obese ob/ob mouse in order to evaluate their influence on food intake and weight development. The animals used are 13- to 18-week-old female ob/ob C57B1/6J mice. They are divided into groups each comprising 4 animals per cage, the cages being fitted with a grating floor, and the mice having free access to food.
Before the experiments, the animals are conditioned for a period ranging from 2 to 3 weeks until their food consumption has stabilised. The experiments may be summarised as follows:
The test compounds are dissolved, immediately before use, in water, 0.9% sodium chloride, propylene glycol or dimethyl sulphoxide, depending upon their solubility, and are administered intraperitoneally (IP), in a volume of 2.5 ml/kg.
The parameters measured are the food intake and the body weight.
The results are expressed as: […]
percentage variation in food intake under treatment compared with the basal food intake;
percentage variation in body weight between the first and last day of treatment.

Another assay deals with T1, Y5 receptor (Homo sapiens, UniProt Q15761).
T1 sequence (Q15761 1-445): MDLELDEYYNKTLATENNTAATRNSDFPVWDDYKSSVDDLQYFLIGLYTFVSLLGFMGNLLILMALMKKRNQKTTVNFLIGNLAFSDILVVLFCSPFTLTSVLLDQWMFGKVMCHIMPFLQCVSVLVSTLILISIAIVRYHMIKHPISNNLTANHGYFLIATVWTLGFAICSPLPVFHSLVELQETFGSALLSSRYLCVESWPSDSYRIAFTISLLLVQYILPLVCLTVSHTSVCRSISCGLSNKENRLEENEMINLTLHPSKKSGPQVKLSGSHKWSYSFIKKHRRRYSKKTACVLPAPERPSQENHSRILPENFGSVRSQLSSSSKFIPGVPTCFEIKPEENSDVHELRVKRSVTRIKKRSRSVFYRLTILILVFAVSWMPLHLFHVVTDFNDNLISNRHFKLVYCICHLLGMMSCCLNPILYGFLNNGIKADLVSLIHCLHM
Description: In vitro affinity for NPY receptors, [125I]-PYY competition binding, Y5 receptor. The conditions noted are these: radioligand [125I]-PYY 15 to 65 pM. The procedure:
The capacity of the compounds of the invention to bind to NPY receptors was measured on various cell lines, each expressing one of the receptor sub-types studied. Competition binding experiments were carried out using the peptide [^125I]-PYY as radioligand at concentrations ranging from 15 to 65 pM. The non-specific fraction is measured in the presence of a concentration of 1 μM NPY. The cells are incubated for a period ranging from 1 to 2 hours depending upon the lines, and the radioactivity is collected after filtration over a GF/C filter treated with 0.1% PEI, before being measured.

`O=C(NNS(=O)(=O)c1ccccc1)c1ccc(Nc2nc(-c3ccccc3)n(-c3cccc(C(F)(F)F)c3)n2)cc1` [Example 1, N′-[4-({5-Phenyl-1-[3-(trifluoromethyl)phenyl]-1H-1,2,4-triazol-3-yl}-amino)benzoyl]benzenesulphonohydrazide]: in the assay with obese ob/ob mouse (1 mg/kg IP twice daily), the “Food intake % variation (D1), Treated” value is on record as −45% and the “Body weight % variation (D4/D0)” value was −6.4%. The IC50 (commonly the midpoint of a concentration-inhibition curve) on Y5 receptor was found to be 0.08 µM.

Take `COc1ccc(S(=O)(=O)NNC(=O)c2ccc(Nc3nc(-c4ccccc4)n(-c4cccc(C(F)(F)F)c4)n3)cc2)cc1` [Example 6]: in the assay with obese ob/ob mouse (5 mg/kg IP twice daily), the “Food intake % variation (D1), Treated” value is −34% and the “Body weight % variation (D4/D0)” value is −11.2%. At Y5 receptor, the IC50 was 0.007 µM.

The record behind these values is patent publication US6596749B2, “Aminotriazole compounds” (Les Laboratoires Servier, priority 1999, dated 2003).
